These are literature values, as cited in patent US20240180821A1, “ORALLY DISINTEGRATING FILM COMPOSITION OF KETOROLAC AND A METHOD OF PREPARATION THEREOF” (LN LABORATORIES PVT LTD, priority 2021, published 2024).

Each structure is given as a SMILES string.

Broadly, the pKa is the negative logarithm of the acid dissociation constant. Regarding `O=C(c1ccccc1)c1ccc2n1CCC2C(=O)O` (racemic) [Ketorolac tromethamine, (±)-5-Benzoyl-2,3-dihydro-1H-pyrrolizine-1-carboxylic acid, compound with 2-amino-2-(hydroxymethyl)-1,3-propanediol], the pKa is 3.5.
